In the experiment the target is T1, Human TRPC6 (Homo sapiens, UniProt Q9Y210).
T1 construct: expressed in transfected cells
T1 sequence (Q9Y210 1-931): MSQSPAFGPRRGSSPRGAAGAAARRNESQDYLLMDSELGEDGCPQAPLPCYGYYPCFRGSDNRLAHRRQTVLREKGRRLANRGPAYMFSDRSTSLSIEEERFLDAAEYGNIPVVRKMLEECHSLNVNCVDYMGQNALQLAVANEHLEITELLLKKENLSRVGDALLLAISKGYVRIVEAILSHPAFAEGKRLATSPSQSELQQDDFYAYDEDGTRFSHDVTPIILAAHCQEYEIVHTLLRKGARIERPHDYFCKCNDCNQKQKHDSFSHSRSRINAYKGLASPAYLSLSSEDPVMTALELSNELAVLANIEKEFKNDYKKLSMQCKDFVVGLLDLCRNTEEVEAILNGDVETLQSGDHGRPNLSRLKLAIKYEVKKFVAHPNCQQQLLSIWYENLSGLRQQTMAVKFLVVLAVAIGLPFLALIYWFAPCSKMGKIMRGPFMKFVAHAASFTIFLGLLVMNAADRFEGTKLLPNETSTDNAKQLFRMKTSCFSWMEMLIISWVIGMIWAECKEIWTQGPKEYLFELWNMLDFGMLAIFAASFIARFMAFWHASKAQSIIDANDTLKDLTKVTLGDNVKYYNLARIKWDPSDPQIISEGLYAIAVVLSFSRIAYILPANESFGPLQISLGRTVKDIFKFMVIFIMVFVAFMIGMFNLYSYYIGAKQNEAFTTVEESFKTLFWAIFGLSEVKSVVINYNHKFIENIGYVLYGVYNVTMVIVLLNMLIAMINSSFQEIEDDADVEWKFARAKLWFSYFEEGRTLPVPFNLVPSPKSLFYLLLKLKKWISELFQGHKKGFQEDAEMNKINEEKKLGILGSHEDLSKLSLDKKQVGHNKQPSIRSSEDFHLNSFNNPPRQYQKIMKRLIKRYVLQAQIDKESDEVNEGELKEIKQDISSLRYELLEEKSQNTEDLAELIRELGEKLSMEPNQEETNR
Description: Evaluation of TRPC6 channel inhibitory activity (1), FLIPR Calcium 5 Assay Kit, OAG stimulation (Compound Nos. 1-1293). It counts as cell-based. The note with it: Human TRPC6 stably-expressing cells, OAG 30 μM, FLIPR Calcium 5 Assay Kit; read-out: Inhibitory activity (pIC50 class) (converted). In outline:
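Calcium influx read by FLIPR fluorescence in cells stably expressing human TRPC6, dye-loaded 30 min. Compounds preincubated 20 min, then OAG stimulation at 30 μM final. Inhibition fitted by four-parameter logistic regression to give pIC50, reported as +/++/+++ categories.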

Consider `Cn1nc(-c2ccccn2)cc1Oc1nc(C#N)ccc1-c1ccc(CCN)cn1` [compound 1280, 5-[5-(2-aminoethyl)pyridin-2-yl]-6-(2-methyl-5-pyridin-2-ylpyrazol-3-yl)oxypyridine-2-carbonitrile], for which the IC50 was under 0.01 µM.
The same measure for `Cn1nc(C2CC2)cc1Oc1nc(C#N)ccc1-c1ncc(CCN)cn1` [compound 1281, 5-[5-(2-aminoethyl)pyrimidin-2-yl]-6-(5-cyclopropyl-2-methylpyrazol-3-yl)oxypyridine-2-carbonitrile]: 0.01 to 1 µM; for `Cc1cc(Oc2nc(C#N)ccc2-c2ccc(CCN)cn2)cc(N2CCCC2)n1` [compound 1282, 5-[5-(2-aminoethyl)pyridin-2-yl]-6-(2-methyl-6-pyrrolidin-1-ylpyridin-4-yl)oxypyridine-2-carbonitrile]: 0.01 to 1 µM; for `Cn1nc(-c2ccccn2)cc1Oc1nc(C#N)ccc1-c1ncc(CN)cn1` [compound 1283, 5-[5-(aminomethyl)pyrimidin-2-yl]-6-(2-methyl-5-pyridin-2-ylpyrazol-3-yl)oxypyridine-2-carbonitrile]: over 1 µM.
The same measure for `Cc1cc(Oc2nc(C#N)ccc2-c2ccc(CCN)cn2)cc(N2CCOCC2)n1` [compound 1284, 5-[5-(2-aminoethyl)pyridin-2-yl]-6-(2-methyl-6-morpholin-4-ylpyridin-4-yl)oxypyridine-2-carbonitrile]: 0.01 to 1 µM; for `Cc1cc(Oc2nc(C#N)ccc2-c2ncc(CN)cn2)cc(N2CCOCC2)n1` [compound 1285, 5-[5-(aminomethyl)pyrimidin-2-yl]-6-(2-methyl-6-morpholin-4-ylpyridin-4-yl)oxypyridine-2-carbonitrile]: over 1 µM; for `Cc1cc(Oc2nc(C#N)ccc2-c2ncc(CN)cn2)cc(-c2ccccn2)n1` [compound 1286, 5-[5-(aminomethyl)pyrimidin-2-yl]-6-(2-methyl-6-pyridin-2-ylpyridin-4-yl)oxypyridine-2-carbonitrile]: over 1 µM.
The same measure for `Cn1nc(-c2ccccn2)cc1Oc1cc(C#N)cnc1-c1ncc(CN)cn1` [compound 1287, 6-[5-(aminomethyl)pyrimidin-2-yl]-5-(2-methyl-5-pyridin-2-ylpyrazol-3-yl)oxypyridine-3-carbonitrile]: over 1 µM.
Regarding `Cn1nc(-c2ccccn2)cc1Oc1cc(C#N)cnc1-c1ccc(CN)cc1` [compound 1288, 6-[4-(aminomethyl)phenyl]-5-(2-methyl-5-pyridin-2-ylpyrazol-3-yl)oxypyridine-3-carbonitrile], the IC50 is over 1 µM.
Then `Cn1nc(-c2ccccc2)cc1Oc1cc(Cl)ncc1-c1ccc(CCN)cn1` [compound 1290, 2-[6-[6-chloro-4-(2-methyl-5-phenylpyrazol-3-yl)oxypyridin-3-yl]pyridin-3-yl]ethanamine], with 0.01 to 1 µM; and `Cn1nc(-c2ccccc2)cc1Oc1cc(Cl)ncc1-c1ccc(CN)cn1` [compound 1291, [6-[6-chloro-4-(2-methyl-5-phenylpyrazol-3-yl)oxypyridin-3-yl]pyridin-3-yl]methanamine], with over 1 µM.
Then `Cn1nc(-c2ccccc2)cc1Oc1nc(Cl)ccc1-c1ccc(CCN)cn1` [compound 1292, 2-[6-[6-chloro-2-(2-methyl-5-phenylpyrazol-3-yl)oxypyridin-3-yl]pyridin-3-yl]ethanamine], with 0.01 to 1 µM; and `Cn1nc(-c2ccccc2)cc1Oc1nc(Cl)ccc1-c1ccc(CN)cn1` [compound 1293, [6-[6-chloro-2-(2-methyl-5-phenylpyrazol-3-yl)oxypyridin-3-yl]pyridin-3-yl]methanamine], with 0.01 to 1 µM.

These data come from patent US20230167073A1 (Teijin Pharma Limited, priority 2020, published 2023).
